Laboratory results reported in patent US10524469B2, “Acetate derived compounds from geranylorcinol. synthesis process for obtaining said compounds and use of said compounds as antifungal against Botrytis cinerea” (UNIVERSIDAD TÉCNICA FEDERICO SANTA MARÍA, priority 2015, dated 2020).
Where two headings read alike, the source gives them in different places.

System: Botrytis cinerea
Test: Mycelial growth inhibition of B. cinerea, radial growth method in PDA
Type: cell-based
Settings: for inhibition at 50 ppm / inhibition at 150 ppm / inhibition at 250 ppm: Botrytis cinerea; for Activity compared with the positive control when encapsulated in Pluronic F-127 micelle (in words): encapsulated in polymeric Pluronic F-127 micelle
Method: 20-40 milligrams of each of compounds 1 to 8 were dissolved in 500 microliters of Ethanol to have a stock solution of each compound according to its molecular weight. The stock solution was diluted in 5 mL of water so as to obtain a new stock solution of 5,000 ppm; from which corresponding aliquots were taken to achieve a final concentration on each plate with 50, 150 and 250 ppm potato dextrose agar (PDA) culture medium.
The method used for the preparation of polymeric micelles, based on Polycaprolactone (MW: 3.409 g/mol) or Pluronic® F-127 (MW: 12,500 g/mol) corresponds to the direct dissolution method consisting of the addition of the polymer to water with stirring and at room temperature, until the polymer dissolves to give a clear aqueous solution. The amount of polymer and water is chosen so as to have a solution of a concentration of 1×10^−3 M of polymer chains.
For the preparation of a solution of 50 mL of Pluronic F-127, 0.63 g is used and for the case of polycaprolactone 0.17 g is used.
The physical encapsulation of the compounds in the polymeric micelles (1×10^−3 M) is carried out by the emulsion method. The compound is dissolved in a volatile solvent (dichloromethane) and […] the polymer solution added in 100 μL aliquots to complete 400 μL reaching a concentration of 0.101 M of compound. By stirring in a vortex and applying ultrasound a very homogeneous milky emulsion is formed. The organic solvent is then removed by evaporation by heating the emulsion at 50° C. in a system open to air. Upon removal of the solvent, a clear solution remains containing the polymer forming micelles and the non-polar compounds which have been encapsulated in the hydrophobic micro-domain provided by the core of these polymeric micelles.
Subsequently, the solution is diluted by adding polymer solution corresponding to a 1×10^−3 M concentration until the compound of interest reaches a stock concentration in the range of 625-1,250 ppm in the micelle to be applied to the plate. This dilution should be done by adding polymer solution so as to maintain the same concentration of micelles and vary only the concentration of active ingredient.
In order to determine the inhibition of mycelial growth of B. cinerea, both for the free state and encapsulated compounds, the radial growth method in potato dextrose agar (PDA) culture medium was used. The compounds of interest in both free and encapsulated form were added to the PDA at different concentrations of 50, 150 and 250 ppm at a temperature of 50° C. Once the PDA had been solidified, a 4-mm diameter disc was seeded with mycelium of the pathogen in the center of the petri dish. The experiment consists of a negative control which is a petri dish where PDA culture medium and 1% Ethanol were added, in the case of Negative Control for encapsulated compounds it consists in adding only the micelle (polycaprolactone or Pluronic […]) free in PDA. In addition, a positive control containing commercially available fungicide Captan in PDA culture medium is included at the same concentrations tested in both its free form and also a positive control of Captan in its encapsulated form. Each treatment consisted of three replicates (n=3 replicates/compound/concentration).
After 48 (free state) and 72 (encapsulated system) hours of incubation at 23° C. under a photoperiod of 16 light hours/8 darkness hours, the mycelial growth inhibition percentage (MGIP) was calculated by assessing the measurement of the diameter of the fungus growth around the disc to calculate the mycelial growth inhibition area. In this way, the mycelial growth inhibition percentage that was compared to the corresponding controls after 48 hours of incubation was determined.

[1] = encapsulated in Pluronic F-127 (Triblock) micelles, 50 ppm, 72 hours
[2] = 48 h, read-out: Mycelial inhibition percentage of Botrityscinerea in vitro, free compound, 50 ppm in PDA, 48 hours of incubation
[3] = 48 h, read-out: Mycelial inhibition percentage of Botrityscinerea in vitro, free compound, 150 ppm in PDA, 48 hours of incubation
[4] = 48 h, read-out: Mycelial inhibition percentage of Botrityscinerea in vitro, free compound, 250 ppm in PDA, 48 hours of incubation
[5] = 72 h, read-out: Mycelial inhibition percentage of Botrityscinerea in vitro, encapsulated in Polycaprolactone (Diblock) micelles, 50 ppm, 72 hours
[6] = 72 h, read-out: Mycelial inhibition percentage of Botrityscinerea in vitro, encapsulated in Polycaprolactone (Diblock) micelles, 150 ppm, 72 hours
[7] = 72 h, read-out: Mycelial inhibition percentage of Botrityscinerea in vitro, encapsulated in Polycaprolactone (Diblock) micelles, 250 ppm, 72 hours
[8] = 72 h, read-out: Mycelial inhibition percentage of Botrityscinerea in vitro, encapsulated in Pluronic F-127 (Triblock) micelles, 50 ppm, 72 hours
[9] = 72 h, read-out: Mycelial inhibition percentage of Botrityscinerea in vitro, encapsulated in Pluronic F-127 (Triblock) micelles, 150 ppm, 72 hours
[10] = 72 h, read-out: Mycelial inhibition percentage of Botrityscinerea in vitro, encapsulated in Pluronic F-127 (Triblock) micelles, 250 ppm, 72 hours

Row | SMILES | Mycelial inhibition percentage of Botrityscinerea in vitro [1] | inhibition at 50 ppm [2] | inhibition at 150 ppm [3] | inhibition at 250 ppm [4] | inhibition at 50 ppm [5] | inhibition at 150 ppm [6] | inhibition at 250 ppm [7] | inhibition at 50 ppm [8] | inhibition at 150 ppm [9] | inhibition at 250 ppm [10] | Activity compared with the positive control when encapsulated in Pluronic F-127 micelle (in words) | other results
1 | O=C1C2CC=CCC2C(=O)N1SC(Cl)(Cl)Cl (stereo not shown) [C+ (positive control), Captan, reference compound] | 98% | – | – | – | – | – | – | – | – | – | – | Mycelial inhibition percentage of Botrityscinerea in vitro (encapsulated in Pluronic F-127 (Triblock) micelles, 150 ppm, 72 hours): 99%; Mycelial inhibition percentage of Botrityscinerea in vitro (encapsulated in Pluronic F-127 (Triblock) micelles, 250 ppm, 72 hours): 99%; Mycelial inhibition percentage of Botrityscinerea in vitro (encapsulated in Polycaprolactone (Diblock) micelles, 50 ppm, 72 hours): 93%; Mycelial inhibition percentage of Botrityscinerea in vitro (encapsulated in Polycaprolactone (Diblock) micelles, 150 ppm, 72 hours): 99%; Mycelial inhibition percentage of Botrityscinerea in vitro (encapsulated in Polycaprolactone (Diblock) micelles, 250 ppm, 72 hours): 99%; Mycelial inhibition percentage of Botrityscinerea in vitro (free compound, 50 ppm in PDA, 48 hours of incubation): 87%; Mycelial inhibition percentage of Botrityscinerea in vitro (free compound, 150 ppm in PDA, 48 hours of incubation): 94%; Mycelial inhibition percentage of Botrityscinerea in vitro (free compound, 250 ppm in PDA, 48 hours of incubation): 94%
2 | CC(C)=CCC/C(C)=C/Cc1c(C)cc(O)cc1O [Formula 1] | – | 0% | 25% | 75% | 37% | 61% | 73% | – | – | – | – | Effect on the mycelium of the pathogen when encapsulated in polycaprolactone micelles (in words): slightly improved
3 | CC(C)=CCC/C(C)=C/Cc1c(C)cc(O)c(C/C=C(\C)CCC=C(C)C)c1O [Formula 2] | 85% | 25% | 61% | 93% | 16% | 36% | 37% | 81 to 99% | 91% | 96% | equal to the activity of the positive control | –
4 | CC(C)=CCC/C(C)=C/Cc1c(O)cc(C)cc1O [Formula 3] | – | 37% | 65% | 82% | 9% | 32% | 42% | – | – | – | – | Effect on the mycelium of the pathogen when encapsulated in polycaprolactone micelles (in words): inactive
5 | CC(C)=CCC/C(C)=C/Cc1c(O)cc(O)c(C/C=C(\C)CCC=C(C)C)c1C [Formula 4] | 82% | 12% | 56% | 83% | 93% | 94% | 97% | 81 to 99% | 92% | 96% | equal to the activity of the positive control | –
6 | CC(=O)Oc1cc(C)c(C/C=C(\C)CCC=C(C)C)c(OC(C)=O)c1 [Formula 5] | – | – | – | – | – | – | – | – | – | – | – | inhibition at 50 ppm (encapsulated in Polycaprolactone (Diblock) micelles, 50 ppm, 72 hours, read-out: Mycelial inhibition percentage of Botrityscinerea in vitro): 16%; inhibition at 150 ppm (encapsulated in Polycaprolactone (Diblock) micelles, 150 ppm, 72 hours, read-out: Mycelial inhibition percentage of Botrityscinerea in vitro): 39%; inhibition at 250 ppm (encapsulated in Polycaprolactone (Diblock) micelles, 250 ppm, 72 hours, read-out: Mycelial inhibition percentage of Botrityscinerea in vitro): 80%; inhibition at 50 ppm (free compound, 50 ppm in PDA, 48 hours of incubation, read-out: Mycelial inhibition percentage of Botrityscinerea in vitro): 24%; inhibition at 150 ppm (free compound, 150 ppm in PDA, 48 hours of incubation, read-out: Mycelial inhibition percentage of Botrityscinerea in vitro): 55%; inhibition at 250 ppm (free compound, 250 ppm in PDA, 48 hours of incubation, read-out: Mycelial inhibition percentage of Botrityscinerea in vitro): 78%
7 | CC(=O)Oc1cc(C)c(C/C=C(\C)CCC=C(C)C)c(OC(C)=O)c1C/C=C(\C)CCC=C(C)C [Formula 6] | 93% | 5% | 69% | 97% | 10% | 31% | 50% | 81 to 99% | 99% | 99% | equal to the activity of the positive control | –
8 | CC(=O)Oc1cc(C)cc(OC(C)=O)c1C/C=C(\C)CCC=C(C)C [Formula 7] | – | 8% | 51% | 82% | 32% | 35% | 59% | – | – | – | – | –
9 | CC(=O)Oc1cc(OC(C)=O)c(C/C=C(\C)CCC=C(C)C)c(C)c1C/C=C(\C)CCC=C(C)C [Formula 8] | 93% | 11% | 54% | 85% | 0% | 36% | 36% | 81 to 99% | 99% | 99% | equal to the activity of the positive control | –
